According to PMC8760513, “Mechanistic details of the actinobacterial lyase-catalyzed degradation reaction of 2-hydroxyisobutyryl-CoA” (The Journal of Biological Chemistry, 2021):

Target: T1, AcHACL (Actinomycetospora chiangmaiensis, UniProt P0DUV9)
T1 construct: recombinant from E. coli Lemo21(DE3), vector pASG-IBA43, N-terminal His-tag and C-terminal Strep-tag; tag removal not mentioned; homotetramer (dimer of dimers); C-terminal lid residues 556-590
T1 sequence (P0DUV9 1-590): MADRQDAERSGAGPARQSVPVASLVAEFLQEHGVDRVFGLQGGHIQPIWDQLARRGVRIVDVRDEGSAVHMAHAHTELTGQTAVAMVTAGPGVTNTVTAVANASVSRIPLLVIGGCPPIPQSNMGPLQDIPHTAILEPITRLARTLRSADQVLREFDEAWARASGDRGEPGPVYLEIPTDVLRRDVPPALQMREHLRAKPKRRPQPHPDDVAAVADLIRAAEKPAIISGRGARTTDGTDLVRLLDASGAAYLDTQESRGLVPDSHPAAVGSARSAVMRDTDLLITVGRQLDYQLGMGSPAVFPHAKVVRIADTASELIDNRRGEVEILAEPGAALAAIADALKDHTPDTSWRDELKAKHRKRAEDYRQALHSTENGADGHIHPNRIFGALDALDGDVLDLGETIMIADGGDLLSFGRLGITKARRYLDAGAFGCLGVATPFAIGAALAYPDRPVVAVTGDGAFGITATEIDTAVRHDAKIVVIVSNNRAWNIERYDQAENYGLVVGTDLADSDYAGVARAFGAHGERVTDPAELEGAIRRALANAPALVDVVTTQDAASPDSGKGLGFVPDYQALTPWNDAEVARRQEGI
Assay: X-ray crystal structure, […] Å
Type: binding

Row | Structure (SMILES) | X-ray crystal structure, 1.64 Å (product-bound dimer formed from 2-HIB-CoA in the crystal, density not well defined beyond the pantoyl moiety) | X-ray crystal structure, 1.64 Å (product-bound dimer, additional density near ThDP interpreted as acetone, hydrogen bond to E493)
1 | CC(C)(COP(=O)(O)OP(=O)(O)OC[C@H]1O[C@@H](n2cnc3c(N)ncnc32)[C@H](O)[C@@H]1OP(=O)(O)O)[C@@H](O)C(=O)NCCC(=O)NCCSC=O [formyl-CoA] | the products formyl-CoA and acetone are bound to the other dimer | 
2 | CC(C)=O [acetone] |  | additional electron density close to the ThDP cofactor was interpreted as an acetone molecule
